The source made the active and inactive calls. The calls are words filed in the database; no cut-off is given here.
Key:
BMDM [1] = test: Effect on NLRP3 expression in LPS-stimulated mouse bone marrow-derived macrophages at 0.5 to 2 uM preincubated for 30 mins followed by nigericin addition and measured after 30 mins by Western blot analysis; type: functional, tissue-based; conditions: dose 0.5-2 µM, time 60.0 min
[2] = Toxicity in C57BL/6 mouse assessed as overactivity at 20 to 40 mg/kg, ig administered for 28 days; type: organism-based; conditions: in vivo, po, 672 h, dose 20-40 mg/kg, time 28 day
[3] = Half life in mouse at 2 mg/kg, iv measured after 0.08 to 24 hrs by LC-MS/MS analysis; type: ADME, organism-based; conditions: in vivo, time 0.08-24 hrs
Mus musculus [4] = test: In vivo inhibition of NLRP3 inflammasome activation in C57BL/6 mouse assessed as reduction in MPO activity at 10 to 20 mg/kg, ig administered for 7 days by ELISA; type: functional, organism-based; conditions: dose 10-20 mg/kg, time 7.0 day
[5] = Toxicity in C57BL/6 mouse assessed as effect on liver at 20 to 40 mg/kg, ig administered for 28 days; type: organism-based; conditions: in vivo, po, 672 h, dose 20-40 mg/kg, time 28 day
Mus musculus [6] = test: Protection against DSS-induced acute ulcerative colitis in C57BL/6 mouse assessed as reduction in pathological index score at 10 to 20 mg/kg, ig administered for 7 days by Hematoxylin and eosin staining based optical microscopy; type: functional, organism-based; conditions: dose 10-20 mg/kg, time 7.0 day
[7] = Tmax in mouse at 20 mg/kg, po measured up to 24 hrs by LC-MS/MS analysis; type: ADME, organism-based; conditions: in vivo
BMDM [8] = test: Effect on NEK7 expression in LPS-stimulated mouse bone marrow-derived macrophages at 0.5 to 2 uM preincubated for 30 mins followed by nigericin addition and measured after 30 mins by Western blot analysis; type: functional, tissue-based; conditions: dose 0.5-2 µM, time 60.0 min
[9] = molecular target: NACHT, LRR and PYD domains-containing protein 3 (Mus musculus) (UniProt Q8R4B8); test: Inhibition of NLRP3 inflammasome activation in LPS-stimulated mouse bone marrow-derived macrophages assessed as reduction in cleaved IL-1beta secretion in supernatant at 2 uM preincubated for 30 mins followed by ATP addition and measured after 0.5 hrs by Western blot analysis; type: tissue-based; conditions: Macrophage, time 60.0 min
Target sequence in this assay (Q8R4B8 whole entry, the tested form may be a part): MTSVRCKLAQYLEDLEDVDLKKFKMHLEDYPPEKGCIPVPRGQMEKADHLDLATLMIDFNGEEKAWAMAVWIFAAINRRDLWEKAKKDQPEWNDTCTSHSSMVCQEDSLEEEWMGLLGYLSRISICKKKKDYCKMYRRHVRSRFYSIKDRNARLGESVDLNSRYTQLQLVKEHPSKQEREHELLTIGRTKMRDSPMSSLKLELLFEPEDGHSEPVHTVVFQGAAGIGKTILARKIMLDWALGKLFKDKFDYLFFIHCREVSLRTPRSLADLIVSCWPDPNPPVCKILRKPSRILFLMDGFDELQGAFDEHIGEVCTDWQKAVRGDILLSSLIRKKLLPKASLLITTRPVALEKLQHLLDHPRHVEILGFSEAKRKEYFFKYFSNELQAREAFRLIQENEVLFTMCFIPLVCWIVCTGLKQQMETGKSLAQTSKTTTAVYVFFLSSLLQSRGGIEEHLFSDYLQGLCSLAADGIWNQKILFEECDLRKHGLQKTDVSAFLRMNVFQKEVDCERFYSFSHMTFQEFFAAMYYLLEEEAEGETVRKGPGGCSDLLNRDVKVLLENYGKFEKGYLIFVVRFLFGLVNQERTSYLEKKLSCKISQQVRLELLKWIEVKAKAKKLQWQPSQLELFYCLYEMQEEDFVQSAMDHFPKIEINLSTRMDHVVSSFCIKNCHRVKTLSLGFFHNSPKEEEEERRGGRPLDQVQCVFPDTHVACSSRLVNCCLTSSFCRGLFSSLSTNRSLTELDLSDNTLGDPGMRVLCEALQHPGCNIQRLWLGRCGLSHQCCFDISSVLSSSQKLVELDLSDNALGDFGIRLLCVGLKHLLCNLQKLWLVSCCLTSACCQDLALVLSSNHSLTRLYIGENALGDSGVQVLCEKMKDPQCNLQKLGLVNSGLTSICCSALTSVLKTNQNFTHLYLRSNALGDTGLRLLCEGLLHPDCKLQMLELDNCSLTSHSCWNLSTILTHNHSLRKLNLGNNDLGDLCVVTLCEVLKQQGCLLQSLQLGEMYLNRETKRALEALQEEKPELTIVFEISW

[10] = Toxicity in C57BL/6 mouse assessed as induction of anorexia at 20 to 40 mg/kg, ig administered for 28 days; type: organism-based; conditions: in vivo, po, 672 h, dose 20-40 mg/kg, time 28 day
Mus musculus [11] = test: Protection against DSS-induced acute ulcerative colitis in C57BL/6 mouse assessed as reduction in body weight at 10 to 20 mg/kg, ig administered for 7 days; type: functional, organism-based; conditions: dose 10-20 mg/kg, time 7.0 day
BMDM [12] = test: Effect on pro-caspase1 expression in LPS-stimulated mouse bone marrow-derived macrophages at 0.5 to 2 uM preincubated for 30 mins followed by nigericin addition and measured after 30 mins by Western blot analysis; type: functional, tissue-based; conditions: dose 0.5-2 µM, time 60.0 min
Mus musculus [13] = test: Protection against DSS-induced acute ulcerative colitis in C57BL/6 mouse assessed as reduction in decrease in goblet cells at 10 to 20 mg/kg, ig administered for 7 days by Hematoxylin and eosin staining based optical microscopy; type: functional, organism-based; conditions: dose 10-20 mg/kg, time 7.0 day
[14] = molecular target: NACHT, LRR and PYD domains-containing protein 3 (Mus musculus) (UniProt Q8R4B8); test: Inhibition of NLRP3 inflammasome activation in LPS-stimulated mouse bone marrow-derived macrophages assessed as reduction in ILbeta secretion at 2 uM preincubated for 30 mins followed by nigericin addition and measured after 0.5 hrs by ELISA; type: tissue-based; conditions: Macrophage, time 60.0 min
Target sequence in this assay (Q8R4B8 whole entry, the tested form may be a part): as above

[15] = molecular target: NACHT, LRR and PYD domains-containing protein 3 (Mus musculus) (UniProt Q8R4B8); test: Inhibition of NLRP3 inflammasome activation in LPS-stimulated mouse bone marrow-derived macrophages assessed as reduction in activated caspase1 p20 in supernatant at 2 uM preincubated for 30 mins followed by nigericin addition and measured after 0.5 hrs by Western blot analysis; type: tissue-based; conditions: Macrophage, time 60.0 min
Target sequence in this assay (Q8R4B8 whole entry, the tested form may be a part): as above

Mus musculus [16] = test: Downregulation of TNFalpha expression in C57BL/6 mouse model of DSS-induced ulcerative colitis at 10 to 20 mg/kg, ig administered for 7 days by ELISA; type: functional, organism-based; conditions: dose 10-20 mg/kg, time 7.0 day
[17] = Intrinsic clearance in human liver microsomes preincubated for 5 mins followed by NADPH addition and measured after 5 to 60 mins by LC-MS/MS analysis; type: ADME, Microsome; conditions: time 5-60 min, read-out: CLH
[18] = Toxicity in C57BL/6 mouse assessed as effect on lung at 20 to 40 mg/kg, ig administered for 28 days; type: organism-based; conditions: in vivo, po, 672 h, dose 20-40 mg/kg, time 28 day
[19] = molecular target: NACHT, LRR and PYD domains-containing protein 3 (Mus musculus) (UniProt Q8R4B8); test: Inhibition of NLRP3 inflammasome activation in LPS-stimulated mouse bone marrow-derived macrophages assessed as reduction in cleaved IL-1beta in supernatant at 2 uM preincubated for 30 mins followed by MSU addition and measured after 0.5 hrs by Western blot analysis; type: tissue-based; conditions: Macrophage, time 60.0 min
Target sequence in this assay (Q8R4B8 whole entry, the tested form may be a part): as above

[20] = molecular target: NACHT, LRR and PYD domains-containing protein 3 (Mus musculus) (UniProt Q8R4B8); test: Inhibition of NLRP3 inflammasome activation in LPS-stimulated mouse bone marrow-derived macrophages assessed as reduction in NEK7-NLRP3 protein-protein interaction preincubated for 30 mins followed by nigericin addition and measured after 30 mins by immunoprecipitation method; type: tissue-based; conditions: Macrophage, time 60.0 min
Target sequence in this assay (Q8R4B8 whole entry, the tested form may be a part): as above

[21] = molecular target: NACHT, LRR and PYD domains-containing protein 3 (Mus musculus) (UniProt Q8R4B8); test: Inhibition of NLRP3 inflammasome activation in LPS-stimulated mouse bone marrow-derived macrophages assessed as reduction in ASC polymerization at 1 to 4 uM preincubated for 30 mins followed by nigericin addition and measured after 0.5 hrs by DAPI staining based confocal scanning microscopy; conditions: Macrophage, dose 1-4 µM
Target sequence in this assay (Q8R4B8 whole entry, looked up, the tested form may be a part): as the sequence (Q8R4B8 whole entry, the tested form may be a part) above

[22] = molecular target: NACHT, LRR and PYD domains-containing protein 3 (Mus musculus) (UniProt Q8R4B8); test: Inhibition of NLRP3 inflammasome activation in LPS-stimulated mouse J774A.1 cells assessed as inhibition of cell pyrolysis at 10 uM incubated for 1 hr followed by ATP addition and measured after 30 mins by Hoechst 33342/propidium iodide staining based high content screening method relative to control; conditions: J774.A1, time 1.5 hrs
Target sequence in this assay (Q8R4B8 whole entry, the tested form may be a part): as above

[23] = molecular target: NACHT, LRR and PYD domains-containing protein 3 (Mus musculus) (UniProt Q8R4B8); test: Inhibition of NLRP3 inflammasome activation in LPS-stimulated mouse bone marrow-derived macrophages assessed as reduction in ILbeta secretion at 2 uM preincubated for 30 mins followed by ATP addition and measured after 0.5 hrs by ELISA; type: tissue-based; conditions: Macrophage, time 60.0 min
[24] = molecular target: NACHT, LRR and PYD domains-containing protein 3 (Mus musculus) (UniProt Q8R4B8); test: Inhibition of NLRP3 inflammasome activation in LPS-stimulated mouse bone marrow-derived macrophages assessed as reduction in pro IL-1beta in cell lysate at 2 uM preincubated for 30 mins followed by MSU addition and measured after 0.5 hrs by Western blot analysis; type: subcellular; conditions: Macrophage, time 60.0 min
[25] = molecular target: NACHT, LRR and PYD domains-containing protein 3 (Mus musculus, UniProt Q8R4B8); test: Inhibition of NLRP3 inflammasome activation in LPS-stimulated mouse bone marrow-derived macrophages assessed as reduction in IL-1beta secretion preincubated for 30 mins followed by nigericin addition and measured after 30 mins by ELISA; type: tissue-based, Macrophage
Chain of NACHT, LRR and PYD domains-containing protein 3 (Q8R4B8 whole entry, the tested form may be a part): as above

[26] = molecular target: NACHT, LRR and PYD domains-containing protein 3 (Mus musculus) (UniProt Q8R4B8); test: Inhibition of NLRP3 inflammasome activation in LPS-stimulated mouse bone marrow-derived macrophages assessed as reduction in NLRP3/ASC protein-protein interaction preincubated for 30 mins followed by nigericin addition and measured after 30 mins by immunoprecipitation method; type: tissue-based; conditions: Macrophage, time 60.0 min
[27] = Cmax in mouse at 20 mg/kg, po measured up to 24 hrs by LC-MS/MS analysis; type: ADME, organism-based; parameters: route oral, dose 20 mg/kg, time <=24; conditions: in vivo

COc1cc(/C=C/c2ccc(NC(=O)C3CC3)cc2)c(/C=C/[N+](=O)[O-])c(OC)c1
Activity (BMDM [1]): inactive
Activity [2]: Non-Toxic
half-life [3]: 0.96 h
inhibition (Mus musculus [4]): Active
Activity [5]: Non-Toxic
Activity (Mus musculus [6]): Active
Tmax [7]: 2.33 h
Activity (BMDM [8]): inactive
inhibition [9]: Active
Activity [10]: Non-Toxic
Activity (Mus musculus [11]): Active
Activity (BMDM [12]): inactive
Activity (Mus musculus [13]): Active
inhibition [14]: Active
inhibition [15]: Active
Activity (Mus musculus [16]): Active
microsomal CLint [17]: 20.3 µL/min/mg
Activity [18]: Non-Toxic
inhibition [19]: Active
inhibition [20]: Dose-Dependent Effect
inhibition [21]: Active
inhibition [22]: 73.1%
inhibition [23]: Active
inhibition [24]: Active
IC50 [25]: 0.56 µM
inhibition [26]: Dose-Dependent Effect
Cmax [27]: 0.0951 µg/mL
